Results: patent US20230399378A1, “PEPTIDE-BASED DELIVERY OF AGENTS” (THE FLOREY INSTITUTE OF NEUROSCIENCE AND MENTAL HEALTH, priority 2020, published 2023)

Experiments:
fibroblasts = assay: Viability of fibroblasts by MTS assay (cytotoxicity); assay type: cell-based, human
Protocol: FIG. 5. Effect of the endosomal escape domain HA2 and lipidation of peptide-PMO conjugates on the viability of fibroblasts determined using MTS assay. UT, untreated control.
The peptide-PMO conjugates were tested up to 10 μM which is 10-fold greater than the concentration needed to achieve a high level of activity.

[1] = tested on: SMA patient-derived fibroblasts; assay: Confocal fluorescence uptake of Cy5-labelled peptide-PMO conjugates in SMA fibroblasts; assay type: cell-based, human; details: 1 μM; for intracellular fluorescence pattern: 1 hr at 37° C.; for cellular uptake on addition of endosomal escape domain HA2: 1 hr, versus counterparts without HA2
Protocol: FIG. 4. Representative confocal fluorescence microscopy images of SMA patient-derived fibroblasts treated with 1 μM of Cy5-labelled: (A) ApoE(141-150)-PMO; (B) HA2-ApoE(141-150)-PMO; (C) ApoE(133-150)-PMO; and (D) HA2-ApoE(133-150)-PMO, for 1 hr at 37° C.
SMA fibroblasts (6.0×10^4 cells/well) were plated onto a p-Slide 4 Well Ph+ Glass Bottom chamber slides precoated with poly-L-ornithine (Ibidi GmbH). After 24 hr, cells were incubated for 1 hr with Cy5-labelled peptide-PMO conjugates (1 μM or 5 μM) diluted in serum free Opti-MEM. At 10 min to end of 1 hr incubation, Hoechst (1:1000 dilution) was added to each well.

SMN2 [2] = assay: SMN2 splice-switching for exon 7 inclusion by RT-qPCR in SMA Type I patient-derived fibroblasts (Example 2); assay type: cell-based, human; details: for level of exon-7 inclusion activity (full length SMN2/HPRT1, normalised to untreated control set to 1): treated 4 hrs, then 20 hrs growth medium, mean±SEM
From the text: FIG. 3. (A) SMN2 pre-mRNA exon-7 skipping and production of 80-90% SMN2Δ7 mRNA transcripts. Peptide-PMO binding to Intron-splicing silencer (ISS-N1) and restoration of SMN2 splicing and production of full-length SMN2 mRNA transcripts. The positions of forward and reverse primers highlighted on full-length mRNA. (B)-(C) Effect of administration of peptides linked to PMO for SMN2 exon 7 inclusion, measured as change in the level of full length SMN2/HPRT1 in SMA patient-derived fibroblasts, each at two concentrations, 0.5 μM and 1 μM (or 1 μM and 5 μM in the case of PMO alone). UT, untreated. (B) For PMO constructs, from left to right: PMO; ApoE(141-150)-PMO; ApoE(133-150)-PMO. (C) For PMO constructs, from left to right: PMO; HA2-PMO; GALA-PMO; NLS-PMO; ApoE(141-150)-PMO; HA2-ApoE(141-150)-PMO; GALA-ApoE(141-150)-PMO; NLS-ApoE(141-150)-PMO; H4-ApoE(141-150)-PMO; A4-ApoE(141-150)-PMO. *P<0.05,**P<0.001, ***P<0.0001 cf. Untreated (control) and PMO (1 and 5 μM); #P<0.001 cf. GALA-/NLS-/H4-ApoE(141-150)-PMO (1 μM), ^<0.001 cf. ApoE(133-150)-PMO (0.5 and 1 μM), ^OP<0.001 cf. ApoE(141-150)-PMO (1 μM), ^&P<0.05 cf.
The inventors then evaluated cellular uptake and activity of these peptide-PMO conjugates in SMA Type I patient-derived fibroblasts with two copies of SMN2. Efficiency of uptake was assessed by RT-qPCR using SMN2 splice-switching for exon 7 inclusion (see FIG. 3A).
SMA Type I patient-derived fibroblasts (SMN2^+/+, GM03813, Coriell Cell Repositories) were maintained in Dulbecco's Modified Eagle's Medium (DMEM), supplemented with 10% foetal bovine serum (FBS), 1% Penicillin/Streptomycin and 1% L-glutamine (L-glu) at 37° C. Cells were plated in 6-well plates at a density of 3×10^5/well in 6 well plates one day prior to treatment with PMO and peptide-PMO conjugates. Cells used were from passage 8-22. PMO and the peptide-PMO conjugates were dissolved in nuclease-free water and diluted to appropriate concentrations in Opti-MEM reduced serum medium. Cells were treated for 4 hrs at 37° C. The transfection medium was then removed and replaced with growth medium in which the cells were incubated for 20 hrs.
Cells were washed with PBS and total cellular RNA was extracted using Trizol (TRI Reagent®, Sigma) according to the manufacturer's instructions (Life Technologies). 400 ng purified RNA was reverse transcribed into cDNA using BioRad iScript Reverse Transcription Supermix kit according to the manufacturer's instructions. The reverse transcription was performed using the Veriti Thermal Cycler (ThermoFisher Scientific) with the thermal cycling conditions: 25° C. for 5 min, 46° C. for 20 min, 95° C. for 1 min followed by a 4° C. holding period.
Quantitative PCR (20 ng cDNA/well) was carried out in a 96-well plate in triplicate using SsoAdvanced Universal SYBR Green Supermix on a Biorad CFX96 Touch™ Real-Time PCR detection system. The amplification was carried out using full-length SMN2-specific primers: Ex-6 Forward 5′-[…]-3′ (SEQ ID NO:10) and Ex7-8 reverse 5′[…]-3′ (SEQ ID NO:11). Human HPRT1 was used as the internal reference gene with forward primer sequence 5′-[…]-3′ (SEQ ID NO:12) and reverse primer sequence 5′-[…]-3′ (SEQ ID NO:13). The ΔΔCt method was used to correct the Ct values against the HPRT1 Ct values. The values obtained were normalised to the untreated control values which were set to 1. Statistical analysis was carried out using one-way ANOVA with post-hoc Bonferroni for multiple groups comparison (GraphPad Prism V.8, 2018). All data are expressed as mean±SEM from at least three independent experiments with p<0.05 considered significant.

[3] = assay type: in vivo, mice; details: 8 mg/kg; dose escalation at 5, 8 and 10 mg/kg; data not shown
SMN2 [4] = assay: Full-length SMN2 RNA in tissues of transgenic SOD1+/- SMN2+/- mice by RT-qPCR; assay type: in vivo; details: 8 mg/kg/week for 5 weeks, tail vein injection, 7 days after final administration, mean±SEM, versus saline-treated control
Protocol: FIG. 6. SMN upregulation in SOD1^G93A mice. A, administration regime. B, Full length (FL) SMN2 levels in brain, spinal cord (S. cord), kidney and quadriceps (Quad) as determined by RT-qPCR in untreated mice (left hand columns) and mice treated with SEQ ID NO:6-PMO conjugate (right hand columns) after administration at a dose of 8 mg/kg weekly for five weeks. *, p<0.05; **, p<0.001; ***, p<0.0001 cf. saline-treated group.
A peptide consisting of the amino acid sequence of SEQ ID NO:6 was conjugated to the PMO antisense oligonucleotide of SEQ ID NO:9 via a non-reducible thioether (thiol-maleimide) bond as described in Example 1. […] Transgenic SOD1^+/− SMN2^+/− mice (n=5) at P60 were treated with Ac-HA2-ApoE(133-150)-PMO conjugate at 8 mg/kg/week for 5 weeks via tail vein injection. Age-matched control mice (n=6) were given saline. Tissues (brain, spinal cord, kidney and quadriceps) were harvested 7 days after final administration. The level of full-length SMN2 RNA was measured using RT-qPCR as above. The level of full-length SMN2 was normalised to mouse HPRT1 with forward primer sequence 5′-[…]-3′ (SEQ ID NO:14) and reverse primer sequence 5′[…]-3′ (SEQ ID NO:15). Data were expressed as mean±SEM. The statistical significances between saline-treated and Ac-HA2-ApoE(133-150)-PMO-treated groups were determined using the Student's t test. […]

[5] = intrathecal injection; cited from earlier work

Substance | effect on cell viability (fibroblasts; at 10 μM) | effect on cell viability (fibroblasts; up to 5 μM) | intracellular fluorescence pattern [1] | cellular uptake on addition of endosomal escape domain HA2 [1] | exon-7 inclusion activity, change in words (SMN2 [2]; 0.5 μM and 1 μM, versus comparator) | tolerability [3] | level of full length SMN2 RNA (normalised to mouse HPRT1) (SMN2 [4]; brain) | level of full length SMN2 RNA (normalised to mouse HPRT1) (SMN2 [4]; spinal cord) | level of exon-7 inclusion activity (full length SMN2/HPRT1, normalised to untreated control set to 1) (SMN2 [2]; 0.5 μM) | level of exon-7 inclusion activity (full length SMN2/HPRT1, normalised to untreated control set to 1) (SMN2 [2]; 1 μM) | side effects such as postprocedural headache and backpain, share of adult patients [5] [%]
Ac-GLFHAIAHFIHGGWH-X-LRKLRKRLLR-X-C-PMO [HA2-ApoE(141-150)-PMO] | decrease in cell viability | None of the P-PMO conjugates had a significant effect on cell viability | higher fluorescence intensity with a more diffused pattern | significantly enhanced cellular uptake | significant increase in the activity |  |  |  |  |  | 
Ac-GLFHAIAHFIHGGWH-X-LRVRLASHLRKLRKRLLR-X-C-PMO [HA2-ApoE(133-150)-PMO] | decrease in cell viability | None of the P-PMO conjugates had a significant effect on cell viability | higher fluorescence intensity with a more diffused pattern | significantly enhanced cellular uptake |  | well-tolerated without any signs of adverse effects | 1.19±0.06 | 1.56±0.1 | 2.02±0.12 | 2.8±0.13 | 
TCACTTTCATAATGCTGG (chemistry not given here) [Nusinersen, FDA-approved antisense oligonucleotide for the treatment of spinal muscular atrophy] |  |  |  |  |  |  |  |  |  |  | 32
